The source of these data is ChEMBL document CHEMBL1201862, “PubChem BioAssay data set” (2004).

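Exposure lasted 48 hours, with cells grown in 96-well plates and compounds tested at five concentrations. GI50 = concentration required for 50% inhibition of growth.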 Activity calls are given as the source filed them. Cut-off read from the data, not from the text of the source: active = GI50 up to about 1.1 µM and inactive = higher.

Test systems include 786-0; A549; ACHN; EKVX; HL-60; HT-29; IGROV-1; K562; MCF7; MOLT-4; NCI-H226; NCI-H23; NCI-H460; NCI/ADR-RES; SK-MEL-28; SK-MEL-2; SN12C; SNB-75; SW-620.
Assay in all cases: NCI tumour cell line growth inhibition, 48 h

As to `O=C(SC1=NCCN1)c1cccc2ccccc12`, the GI50 was 67.5 µM (inactive) in the assay with 786-0; > 100 µM (inactive) in the assay with A549; 66.8 µM (inactive) in the assay on ACHN; 28.3 µM (inactive) with EKVX; 23.8 µM (inactive) in the assay on HL-60; 38.6 µM (inactive) with HT-29. In addition, the GI50 in the assay on IGROV-1 was 63.7 µM (inactive); in the assay on K562 it was 25.4 µM (inactive); in the assay on MCF7 it was 50.9 µM (inactive); with MOLT-4, 16.9 µM (inactive); with NCI-H226, 32.3 µM (inactive); in the assay on NCI-H23, 63.5 µM (inactive). The GI50 with NCI-H460 was 62.5 µM (inactive); in the assay with NCI/ADR-RES, 31.6 µM (inactive); in the assay with SK-MEL-28, 96.2 µM (inactive); with SK-MEL-2, > 100 µM (inactive); with SN12C, 64.6 µM (inactive); in the assay with SNB-75, 22.8 µM (inactive). Besides, the GI50 in the assay on SW-620 is 33.8 µM (inactive).

Regarding `CCSC1=CC(=O)c2nc3ccccc3c3ccnc1c23`, the GI50 in the assay with 786-0 is 3.04 µM (inactive); in the assay with A549, 7.8 µM (inactive); in the assay on ACHN, 3.65 µM (inactive); with EKVX it was 2.58 µM (inactive); with HL-60, 2.06 µM (inactive); in the assay with HT-29, 3.82 µM (inactive). The GI50 with IGROV-1 was 2.72 µM (inactive); in the assay with K562, 1.35 µM (inactive); with MCF7, 1.88 µM (inactive); with MOLT-4, 2.64 µM (inactive); with NCI-H226 it was 10.6 µM (inactive); in the assay on NCI-H23, 2.64 µM (inactive). For the same compound, the GI50 in the assay on NCI-H460 is 6.24 µM (inactive); in the assay on NCI/ADR-RES, 2.62 µM (inactive); in the assay with SK-MEL-28, 10.1 µM (inactive); with SK-MEL-2, 1.91 µM (inactive); in the assay with SN12C, 2.64 µM (inactive); in the assay on SNB-75, 6.43 µM (inactive). In addition, the GI50 with SW-620 was 2.68 µM (inactive).

Take `COc1cc(C2c3cc4c(cc3OC(N3CCOCC3)C2C)OCO4)cc(OC)c1O` (stereo not given): the GI50 in the assay on 786-0 is 10.1 µM (inactive); with A549, 8.91 µM (inactive); in the assay with ACHN, 12.2 µM (inactive); in the assay with EKVX, 36.2 µM (inactive); in the assay with HL-60 it was 3.52 µM (inactive); in the assay on HT-29, 4.04 µM (inactive). In addition, the GI50 with IGROV-1 was 7.6 µM (inactive); with K562, 3.38 µM (inactive); in the assay with MCF7, 5.35 µM (inactive); with MOLT-4, 3.18 µM (inactive); in the assay with NCI-H226 it was 22.6 µM (inactive); in the assay on NCI-H23 it was 24.8 µM (inactive). The GI50 in the assay with NCI-H460 is 5.09 µM (inactive); with NCI/ADR-RES, 3.35 µM (inactive); with SK-MEL-28 it was 12.9 µM (inactive); with SK-MEL-2 it was 6.9 µM (inactive); in the assay on SN12C it was 13.7 µM (inactive); in the assay on SNB-75, 1.79 µM (inactive). For the same compound, the GI50 in the assay with SW-620 was 3.84 µM (inactive).

Turning to `COc1ccc2c(c1)C1=NCCN(CCN(C)C)c3ccc([N+](=O)[O-])c(c31)N2`, the GI50 is 0.255 µM (active) in the assay with 786-0; 0.417 µM (active) in the assay on A549; 0.191 µM (active) in the assay on ACHN; 0.736 µM (active) in the assay on EKVX; 0.427 µM (active) in the assay on HL-60; 0.348 µM (active) in the assay on HT-29. Besides, the GI50 with IGROV-1 was 0.708 µM (active); in the assay on K562 it was 0.364 µM (active); with MCF7 it was 0.365 µM (active); in the assay with MOLT-4, 0.355 µM (active); in the assay on NCI-H226, 2.17 µM (inactive); in the assay with NCI-H23, 0.701 µM (active). Further, the GI50 in the assay with NCI-H460 was 0.354 µM (active); with NCI/ADR-RES, 0.957 µM (active); in the assay on SK-MEL-28, 1.28 µM (inactive); with SK-MEL-2 it was 1.45 µM (inactive); in the assay on SN12C, 0.568 µM (active); in the assay on SNB-75, 0.173 µM (active). Moreover, the GI50 in the assay on SW-620 was 0.252 µM (active).

For `COc1cc2c(/C=C3/C(=O)Nc4ccc(O)cc43)c(Cl)[nH]c2cc1C`, the GI50 in the assay with 786-0 is 0.173 µM (active); in the assay with A549, 0.397 µM (active); with ACHN it was 0.108 µM (active); in the assay on EKVX it was 0.679 µM (active); in the assay on HL-60 it was 0.0343 µM (active); with HT-29, 0.149 µM (active). For the same compound, the GI50 is 0.441 µM (active) with IGROV-1; 0.0382 µM (active) in the assay on K562; 0.0748 µM (active) with MCF7; 0.039 µM (active) with MOLT-4; 0.258 µM (active) in the assay on NCI-H226; 0.23 µM (active) in the assay on NCI-H23. In addition, the GI50 in the assay on NCI-H460 was 0.454 µM (active); in the assay on NCI/ADR-RES it was 0.249 µM (active); in the assay on SK-MEL-28, 0.0149 µM (active); in the assay on SK-MEL-2, 0.883 µM (active); in the assay with SN12C, 0.197 µM (active); in the assay on SNB-75 it was 0.143 µM (active). The GI50 in the assay on SW-620 was 0.0955 µM (active).

As to `COc1ccc(CCNC(=O)Cc2ccccc2CCO)cc1OC`, the GI50 with 786-0, in the assay on A549, in the assay with ACHN, with EKVX, with HL-60 and with HT-29 was > 100 µM (inactive) in each case. The GI50 with IGROV-1, in the assay with K562, in the assay with MCF7, with MOLT-4, in the assay with NCI-H226 and with NCI-H23 was > 100 µM (inactive) in each case. Further, the GI50 in the assay on NCI-H460 was > 100 µM (inactive); in the assay with NCI/ADR-RES, > 100 µM (inactive); in the assay on SK-MEL-28 it was 52.7 µM (inactive); in the assay on SK-MEL-2, > 100 µM (inactive); with SN12C it was > 100 µM (inactive); in the assay with SNB-75 it was > 100 µM (inactive). Also, the GI50 in the assay with SW-620 is > 100 µM (inactive).

Turning to `Cc1nc(-c2ccc(Cl)cc2)cn2c1nc1ccccc12`, the GI50 is > 100 µM (inactive) in the assay with 786-0; > 100 µM (inactive) in the assay with A549; > 100 µM (inactive) with ACHN; > 100 µM (inactive) with EKVX; > 31.6 µM (inactive) in the assay with HL-60; 99.1 µM (inactive) in the assay on HT-29. In addition, the GI50 with IGROV-1 is 11.1 µM (inactive); with K562, > 72.3 µM (inactive); in the assay with MCF7, 0.647 µM (active); with MOLT-4, 26.3 µM (inactive); in the assay on NCI-H226 it was > 100 µM (inactive); with NCI-H23, > 100 µM (inactive). Also, the GI50 in the assay on NCI-H460 was > 100 µM (inactive); in the assay on NCI/ADR-RES, > 86.3 µM (inactive); in the assay with SK-MEL-28, > 100 µM (inactive); in the assay with SK-MEL-2, > 100 µM (inactive); with SN12C it was > 100 µM (inactive); in the assay with SNB-75, > 100 µM (inactive). The GI50 in the assay with SW-620 is > 100 µM (inactive).

For the compound `CC(=O)O[C@H]1C[C@H]2[C@@H]([C@H](OC(C)=O)C[C@@H]3CC4(CC[C@@]32C)OOC2(CCCCC2)OO4)[C@@H]2CC[C@H]([C@H](C)CCC(N)=O)[C@@]12C`, the GI50 in the assay on 786-0 was 1.81 µM (inactive); in the assay on A549, 1.19 µM (inactive); in the assay on ACHN it was 1.63 µM (inactive); with EKVX, 1.49 µM (inactive); with HL-60 it was 1.69 µM (inactive); in the assay on HT-29 it was 3.4 µM (inactive). For the same compound, the GI50 is 0.134 µM (active) in the assay on IGROV-1; 2.05 µM (inactive) in the assay with K562; 2.61 µM (inactive) in the assay with MCF7; 0.881 µM (active) with MOLT-4; 2.46 µM (inactive) in the assay with NCI-H226; 1 µM (active) in the assay on NCI-H23. Moreover, the GI50 was 1.93 µM (inactive) in the assay with NCI-H460; 2.2 µM (inactive) with NCI/ADR-RES; 8.93 µM (inactive) with SK-MEL-28; 1.78 µM (inactive) in the assay on SK-MEL-2; 2.14 µM (inactive) in the assay with SN12C; 2.28 µM (inactive) with SNB-75. Besides, in the assay on SW-620, the GI50 was 2.42 µM (inactive).

As for `O=C(O)CP(=O)(O)O`, the GI50 in the assay with 786-0, in the assay on A549, with ACHN, with EKVX, with HL-60 and in the assay with HT-29 was > 100 µM (inactive) each time. Moreover, the GI50 in the assay with IGROV-1, in the assay with K562, with MCF7, in the assay on MOLT-4, in the assay with NCI-H226 and in the assay with NCI-H23 was > 100 µM (inactive) throughout. Also, the GI50 with NCI-H460, in the assay with NCI/ADR-RES, in the assay with SK-MEL-28, with SK-MEL-2, in the assay on SN12C and in the assay on SNB-75 was > 100 µM (inactive) throughout. Besides, the GI50 in the assay on SW-620 is > 100 µM (inactive).

On to `CCN(CC)CCn1c(=O)c2cccnc2n2c3c(=O)n(C)c(=O)n(C)c3nc12`, for which the GI50 in the assay with 786-0 was > 100 µM (inactive); in the assay on A549 it was 59.4 µM (inactive); with ACHN, 34.8 µM (inactive); in the assay on EKVX it was > 100 µM (inactive); in the assay on HL-60, 69 µM (inactive); in the assay on HT-29, > 100 µM (inactive). Besides, the GI50 was > 100 µM (inactive) in the assay with IGROV-1; > 100 µM (inactive) in the assay on K562; 45.1 µM (inactive) with MCF7; 34.7 µM (inactive) with MOLT-4; 95.1 µM (inactive) in the assay with NCI-H226; > 100 µM (inactive) in the assay with NCI-H23. Also, the GI50 was 36.6 µM (inactive) with NCI-H460; > 100 µM (inactive) with NCI/ADR-RES; > 100 µM (inactive) with SK-MEL-28; > 100 µM (inactive) in the assay on SK-MEL-2; > 100 µM (inactive) with SN12C; > 100 µM (inactive) in the assay with SNB-75. For the same compound, the GI50 in the assay on SW-620 was 76.9 µM (inactive).
